pIC50: −log10 of the molar value.
Molecular target: recombinant DYRK1A kinase (Homo sapiens, UniProt Q13627)
Assay: DYRK1A kinase assay (Ser/Thr 18 peptide Z-lyte FRET)
Type: biochemical
Details: DYRK1A 0.25 μg/mL, ATP 15 μM, Ser/Thr peptide 18 4 μM, one hour at room temperature, 11-point dose-response from 10 μM
Method: Representative compounds were screened using the assay procedure for DYRK1A kinase activity as described below.
Each compound was dissolved in DMSO as a 10 mM stock and used to prepare compound source plates. Serial dilution (1:3, 11-point dose-response curves from 10 μM to 0.00016 μM) and compound transfer was performed using the ECHO 550 (Labcyte, Sunnyvale, CA) into 1536-well black-walled round bottom plates (Corning).
The DYRK1A kinase assay was run using the Ser/Thr 18 peptide Z-lyte assay kit according to manufacturer's instructions (Life Technologies—a Division of Thermo-Fisher). This is a non-radioactive assay using fluorescence resonance energy transfer (FRET) between coumarin and fluorescein to detect kinase activity which is represented as a ratio of coumarin emission/fluorescein emission.
Briefly, recombinant DYRK1A kinase, ATP and Ser/Thr peptide 18 were prepared in 1× Kinase buffer to final concentrations of 0.25 μg/mL, 15 μM, and 4 μM respectively. The mixture was allowed to incubate with the representative compounds for one hour at room temperature. All reactions were performed in duplicate. Unphosphorylated (“0% Control”) and phosphorylated (“100% control”) forms of Ser/Thr 18 served as control reactions. Additionally, an 11-point dose-response curve of Staurosporine (1 uM top) was run to serve as a positive compound control.
After incubation, Development Reagent A was diluted in Development Buffer then added to the reaction and allowed to further incubate for one hour at room temperature. The plate was read at Ex 400 Em 455 to detect the coumarin signal and Ex 400 Em 520 to measure the signal (EnVision Multilabel Plate Reader, PerkinElmer).
The Emission ratio (Em) was calculated as a ratio of the coumarin (C) emission signal (at 445 nm)/Fluorescein (F) emission signal (at 520 nm). The percent phosphorylation was then calculated using the following formula: [1−((Em ratio×F100%)−C100%)/((C0%−C100%)+(Em ratio×(F100%−F0%)))]. Dose-response curves were generated, and inhibitory concentration (IC50) values were calculated using non-linear regression curve fit in the Dotmatics' Studies Software (Bishops Stortford, UK).

pIC50 | Structure (SMILES)
8.64 | CNc1nc(N[C@@H]2CCN(C)CC2(F)F)nn2cc(F)c(-c3ccc4nc(C)n(CCF)c4n3)c12 [Compound 165, (R)—N^2-(3,3-Difluoro-1-methylpiperidin-4-yl)-6-fluoro-5-(3-(2-fluoroethyl)-2-methyl-3H-imidazo[4,5-b]pyridin-5-yl)-N^4-methylpyrrolo[2,1-f][1,2,4]triazine-2,4-diamine]
8.54 | CNc1nc(N[C@@H]2CCN(C(C)=O)CC2(F)F)nn2cc(F)c(-c3ccc4nc(C)n(CCF)c4n3)c12 [Compound 166, (R)-1-(3,3-Difluoro-4-((6-fluoro-5-(3-(2-fluoroethyl)-2-methyl-3H-imidazo [4,5-b]pyridin-5-yl)-4-(methylamino)pyrrolo[2,1-f][1,2,4]triazin-2-yl)amino)piperidin-1-yl)ethan-1-one]
8.85 | CNc1nc(N[C@@H]2CCN(C3COC3)CC2(F)F)nn2cc(F)c(-c3ccc4nc(C)n(CCF)c4n3)c12 [Compound 168, (R)—N^2-(3,3-Difluoro-1-(oxetan-3-yl)piperidin-4-yl)-6-fluoro-5-(3-(2-fluoroethyl)-2-methyl-3H-imidazo[4,5-b]pyridin-5-yl)-N^4-methylpyrrolo[2,1-f][1,2,4]triazine-2,4-diamine]
8.70 | CNc1nc(N[C@H]2CCN(C(=O)CO)C[C@H]2F)nn2ccc(-c3ccc4nc(C)n(CC(F)F)c4n3)c12 [Compound 174, 1-((3R,4S)-4-((5-(3-(2,2-Difluoroethyl)-2-methyl-3H-imidazo[4,5-b]pyridin-5-yl)-4-(methylamino)pyrrolo[2,1-f][1,2,4]triazin-2-yl)amino)-3-fluoropiperidin-1-yl)-2-hydroxyethan-1-one]
8.89 | CNc1nc(N[C@@H]2CCN(C(=O)CO)CC2(F)F)nn2ccc(-c3ccc4nc(C)n(CC(F)F)c4n3)c12 [Compound 175, (R)-1-(4-((5-(3-(2,2-Difluoroethyl)-2-methyl-3H-imidazo[4,5-b]pyridin-5-yl)-4-(methylamino)pyrrolo[2,1-f][1,2,4]triazin-2-yl)amino)-3,3-difluoropiperidin-1-yl)-2-hydroxyethan-1-one]
8.82 | CNc1nc(N[C@@H]2CCN(C(C)=O)CC2(F)F)nn2cc(F)c(-c3ccc4nc(C)n(CC(F)F)c4n3)c12 [Compound 177, (R)-1-(4-((5-(3-(2,2-Difluoroethyl)-2-methyl-3H-imidazo[4,5-b]pyridin-5-yl)-6-fluoro-4-(methylamino)pyrrolo[2,1-f][1,2,4]triazin-2-yl)amino)-3,3-difluoropiperidin-1-yl)ethan-1-one]
8.31 | CCn1nnc2ccc(-c3c(F)cn4nc(N[C@H]5CCN(C6COC6)C[C@H]5F)nc(NC)c34)nc21 [Compound 214, 5-(3-Ethyl-3H-[1,2,3]triazolo[4,5-b]pyridin-5-yl)-6-fluoro-N^2-((3R,4S)-3-fluoro-1-(oxetan-3-yl)piperidin-4-yl)-N^4-methylpyrrolo[2,1-f][1,2,4]triazine-2,4-diamine]
8.64 | CCn1nnc2ccc(-c3c(F)cn4nc(N[C@@H]5CCN(C)CC5(F)F)nc(NC)c34)nc21 [Compound 215, (R)—N^2-(3,3-Difluoro-1-methylpiperidin-4-yl)-5-(3-ethyl-3H-[1,2,3]triazolo [4,5-b]pyridin-5-yl)-6-fluoro-N^4-methylpyrrolo[2,1-f][1,2,4]triazine-2,4-diamine]
8.59 | CCn1nnc2ccc(-c3c(F)cn4nc(N[C@@H]5CCN(C(C)=O)CC5(F)F)nc(NC)c34)nc21 [Compound 216, (R)-1-(4-((5-(3-Ethyl-3H-[1,2,3]triazolo[4,5-b]pyridin-5-yl)-6-fluoro-4-(methylamino)pyrrolo[2,1-f][1,2,4]triazin-2-yl)amino)-3,3-difluoropiperidin-1-yl)ethan-1-one]
8.28 | Nc1nc(N[C@H]2CCN(C3COC3)C[C@H]2F)nn2ccc(-c3ccc4nnn(CCF)c4n3)c12 [Compound 220, N^2-((3R,4S)-3-Fluoro-1-(oxetan-3-yl)piperidin-4-yl)-5-(3-(2-fluoroethyl)-3H-[1,2,3]triazolo[4,5-b]pyridin-5-yl)pyrrolo[2,1-f][1,2,4]triazine-2,4-diamine]
8.55 | CN1CC[C@@H](Nc2nc(N)c3c(-c4ccc5nnn(CCF)c5n4)ccn3n2)C(F)(F)C1 [Compound 221, (R)—N^2-(3,3-Difluoro-1-methylpiperidin-4-yl)-5-(3-(2-fluoroethyl)-3H-[1,2,3]triazolo[4,5-b]pyridin-5-yl)pyrrolo[2,1-f][1,2,4]triazine-2,4-diamine]
8.49 | CC(=O)N1CC[C@@H](Nc2nc(N)c3c(-c4ccc5nnn(CCF)c5n4)ccn3n2)C(F)(F)C1 [Compound 222, (R)-1-(4-((4-Amino-5-(3-(2-fluoroethyl)-3H-[1,2,3]triazolo[4,5-b]pyridin-5-yl)pyrrolo[2,1-f][1,2,4]triazin-2-yl)amino)-3,3-difluoropiperidin-1-yl)ethan-1-one]
8.09 | CNc1nc(NC2CCC(F)(F)CC2)nn2ccc(-c3ccc4nnn(CCF)c4n3)c12 [Compound 233, N^2-(4,4-Difluorocyclohexyl)-5-(3-(2-fluoroethyl)-3H-[1,2,3]triazolo[4,5-b]pyridin-5-yl)-N^4-methylpyrrolo[2,1-f][1,2,4]triazine-2,4-diamine]
9.10 | CNc1nc(N[C@H]2CC[C@](C)(O)CC2)nn2ccc(-c3ccc4nnn(CCF)c4n3)c12 [Compound 234, (1r,4r)-4-((5-(3-(2-Fluoroethyl)-3H-[1,2,3]triazolo[4,5-b]pyridin-5-yl)-4-(methylamino)pyrrolo[2,1-f][1,2,4]triazin-2-yl)amino)-1-methylcyclohexan-1-ol]
8.70 | CNc1nc(N[C@H]2CCN(C(C)=O)C[C@H]2F)nn2ccc(-c3ccc4nnn(CCF)c4n3)c12 [Compound 235, 1-((3R,4S)-3-Fluoro-4-((5-(3-(2-fluoroethyl)-3H-[1,2,3]triazolo[4,5-b]pyridin-5-yl)-4-(methylamino)pyrrolo[2,1-f][1,2,4]triazin-2-yl)amino)piperidin-1-yl)ethan-1-one]
8.68 | CNc1nc(N[C@H]2CCN(C3COC3)C[C@H]2F)nn2ccc(-c3ccc4nnn(CCF)c4n3)c12 [Compound 236, N^2-((3R,4S)-3-fluoro-1-(oxetan-3-yl)piperidin-4-yl)-5-(3-(2-fluoroethyl)-3H-[1,2,3]triazolo[4,5-b]pyridin-5-yl)-N^4-methylpyrrolo[2,1-f][1,2,4]triazine-2,4-diamine]
9.15 | CNc1nc(N[C@@H]2CCN(C)CC2(F)F)nn2ccc(-c3ccc4nnn(CCF)c4n3)c12 [Compound 237, (R)—N^2-(3,3-Difluoro-1-methylpiperidin-4-yl)-5-(3-(2-fluoroethyl)-3H-[1,2,3]triazolo[4,5-b]pyridin-5-yl)-N^4-methylpyrrolo[2,1-f][1,2,4]triazine-2,4-diamine]
8.85 | CNc1nc(N[C@@H]2CCN(C(C)=O)CC2(F)F)nn2ccc(-c3ccc4nnn(CCF)c4n3)c12 [Compound 238, (R)-1-(3,3-Difluoro-4-((5-(3-(2-fluoroethyl)-3H-[1,2,3]triazolo[4,5-b]pyridin-5-yl)-4-(methylamino)pyrrolo[2,1-f][1,2,4]triazin-2-yl)amino)piperidin-1-yl)ethan-1-one]
9.22 | CNc1nc(N[C@@H]2CCN(C3COC3)CC2(F)F)nn2ccc(-c3ccc4nnn(CCF)c4n3)c12 [Compound 239, (R)—N^2-(3,3-Difluoro-1-(oxetan-3-yl)piperidin-4-yl)-5-(3-(2-fluoroethyl)-3H-[1,2,3]triazolo[4,5-b]pyridin-5-yl)-N^4-methylpyrrolo[2,1-f][1,2,4]triazine-2,4-diamine]
8.70 | CNc1nc(N[C@H]2CC[C@](C)(O)CC2)nn2cc(F)c(-c3ccc4nnn(CCF)c4n3)c12 [Compound 248, (1r,4r)-4-((6-Fluoro-5-(3-(2-fluoroethyl)-3H-[1,2,3]triazolo[4,5-b]pyridin-5-yl)-4-(methylamino)pyrrolo[2,1-f][1,2,4]triazin-2-yl)amino)-1-methylcyclohexan-1-ol]
8.72 | CNc1nc(N[C@H]2CCN(C(C)=O)C[C@H]2F)nn2cc(F)c(-c3ccc4nnn(CCF)c4n3)c12 [Compound 249, 1-((3R,4S)-3-Fluoro-4-((6-fluoro-5-(3-(2-fluoroethyl)-3H-[1,2,3]triazolo[4,5-b]pyridin-5-yl)-4-(methylamino)pyrrolo[2,1-f][1,2,4]triazin-2-yl)amino)piperidin-1-yl)ethan-1-one]
9.15 | CNc1nc(N[C@H]2CCN(C3COC3)C[C@H]2F)nn2cc(F)c(-c3ccc4nnn(CCF)c4n3)c12 [Compound 250, 6-Fluoro-N^2-((3R,4S)-3-fluoro-1-(oxetan-3-yl)piperidin-4-yl)-5-(3-(2-fluoroethyl)-3H-[1,2,3]triazolo[4,5-b]pyridin-5-yl)-N^4-methylpyrrolo[2,1-f][1,2,4]triazine-2,4-diamine]

Reference: US20250340575A1, “4-AMINOPYRROLO[2,1-F][1,2,4]TRIAZINES AND PREPARATION AND USES THEREOF” (Biosplice Therapeutics, Inc., priority 2024, published 2025)
